Patent US11959083B2, “Immunosuppression-reverting oligonucleotides inhibiting the expression of CD39” (Secarna Pharmaceuticals GmbH & Co. KG, priority 2016, dated 2024)
l = locked nucleic acid (LNA); d = 2'-deoxy (DNA)

Columns and labels:
Format in all cases: cell-based, human
hCD39 mRNA [1] = test: IC50 determination / concentration-dependent hCD39 mRNA knockdown in HDLM-2 cells; settings: for mRNA inhibition: HDLM-2, 3 days; for IC50: HDLM-2 cells, hCD39 mRNA, 3 days
Experimental: HDLM-2 cells were treated for 3 days with the indicated concentration of the respective antisense oligonucleotide. Residual hCD39 expression is depicted compared to untreated control cells. hCD39 mRNA expression values were normalized to expression of the housekeeping gene HPRT1.
The antisense oligonucleotide A04040H (SEQ ID No. 3) that had shown potent activity in the first and second screening round was used as reference. HDLM-2 cells treated for 3 days with the indicated concentrations of the respective antisense oligonucleotide. hCD39 mRNA expression values were normalized to expression of the housekeeping gene HPRT1. Residual hCD39 mRNA expression relative to untreated cells (set as 100) is depicted. Depicted is the mean of triplicate wells+/−SD.
In a second experiment the concentration-dependency of effects and the IC50 values of hCD39 antisense oligonucleotides A04010H (SEQ ID No.14), A04016H (SEQ ID No.20), A04017H (SEQ ID No.21), A04020H (SEQ ID No. 24) and A04026H (SEQ ID No.30) were tested. […] HDLM-2 cells were treated with titrated amounts of the respective antisense oligonucleotide (concentrations: 10 μM, 3.3 μM, 1.1 μM, 370 nM, 120 nM, 41 nM, 14 nM, 4.5 nM). hCD39 mRNA expression was analyzed after three days of treatment. FIG. 5 and Table 9 depicts the concentration-dependent reduction of hCD39 mRNA expression by the selected hCD39 antisense oligonucleotides.
The hCD39 antisense oligonucleotides A04051H (SEQ ID No.88), A04052H (SEQ ID No.89), A04053H ([…]), A04056H (SEQ ID No.92), A04059H (SEQ ID No.94), A04060H (SEQ ID No.95), and A04061H (SEQ ID No.96) had shown potent single-dose activity in both HDLM-2 and A-172 cells. […] The antisense oligonucleotide A04040H that had shown potent activity in the first screening round was used as reference. hCD39 mRNA expression was analyzed after 3 days of treatment. FIG. 7 depicts the concentration-dependent reduction of hCD39 expression by hCD39 antisense oligonucleotides.

hCD39 mRNA [2] = test: hCD39 mRNA knockdown efficacy screen in A-172 cells (single dose, gymnotic delivery, QuantiGene Singleplex); settings: 10 μM, 3 days; for Mean hCD39 mRNA expression (relative to untreated cells set as 1): first screening round; for Mean hCD39 mRNA expression (relative to untreated cells set as 1) / Relative hCD39 mRNA expression (compared to non-treated cells): normalized to HPRT1; for Relative hCD39 mRNA expression (compared to non-treated cells): second screening round; for Residual hCD39 mRNA expression relative to untreated cells (set as 1): third screening round
Experimental: (§1) FIGS. 2A to 2D depict hCD39 mRNA knockdown efficacy of hCD39 antisense oligonucleotides in human cancer cell lines HDLM-2 (human Hodgkin Lymphoma) in a first and second screening round (FIGS. 2A-1 and 2A-2) and 2B-1 and 2B-2 and A-172 (human glioblastoma) in a first and second screening round (FIGS. 2C-1 and 2C-2) and 2D-1 and 2D-2. HDLM-2 and A-172 cells were treated for 3 days with 10 μM of the respective antisense oligonucleotide. As negative control, cells were treated with neg1, an antisense oligonucleotide having the sequence CGTTTAGGCTATGTACTT (SEQ ID NO:99) (described in WO2014154843 A1). Residual hCD39 mRNA expression relative to untreated cells is depicted. Expression values were normalized to expression of the housekeeping gene HPRT1. Depicted is the mean of triplicate wells+/−SD.
(§2) FIGS. 6A-6B depicts a third screening round where further antisense oligonucleotides were designed. These antisense oligonucleotides were based on efficient antisense oligonucleotides from the first and second screening round. Therefore, hCD39 antisense oligonucleotides were tested in human cancer cell lines HDLM-2 (human Hodgkin's lymphoma) (FIG. 6A) and A-172 (human glioblastoma) (FIG. 6B). HDLM-2 and A-172 cells were treated for 3 days with 10 μM of the respective antisense oligonucleotide. […] Residual hCD39 mRNA expression relative to untreated cells (set as 1) is depicted.
(§3) In order to analyze the efficacy of hCD39 antisense oligonucleotides of the present invention with regard to the knockdown of hCD39 mRNA expression in cancer cell lines, HDLM-2 (human Hodgkin Lymphoma, DSMZ) and A-172 (human glioblastoma, ATCC) cells were treated with a single dose (concentration: 10 μM without addition of any transfection reagent; this process is called gymnotic delivery) of the respective antisense oligonucleotide as shown in FIG. 2A to 2D. hCD39 and HPRT1 mRNA expression was analyzed three days later using the QuantiGene Singleplex assay (Affymetrix) and hCD39 expression values were normalized to HPRT1 values. […] Values of the mean normalized mRNA expression of hCD39 compared to non-treated cells are listed for A-172 (Table 4 for first screening round and Table 5 for second screening round) and HDLM-2 cells (Table 6 for first screening round and Table 7 for second screening round) in the following:
(§4) For a third screening round, new antisense oligonucleotides were designed. These antisense oligonucleotides were based on efficient antisense oligonucleotides from the first screening round with modifications in length, exact position on mRNA and chemical modification pattern. Therefore, hCD39 antisense oligonucleotides were tested in human cancer cell lines (FIG. 6A, Table 10) HDLM-2 (human Hodgkin's lymphoma) and (FIG. 6B, Table 11) A-172 (human glioblastoma). HDLM-2 and A-172 cells were treated for 3 days with 10 μM of the respective antisense oligonucleotide. […] Residual hCD39 mRNA expression relative to untreated cells (set as 1) is depicted.

hCD39 mRNA [3] = test: hCD39 mRNA knockdown efficacy screen in HDLM-2 cells (single dose, gymnotic delivery, QuantiGene Singleplex); set-up: key to Relative hCD39 mRNA expression (compared to non-treated cells): *: values are below detection limit; settings: 10 μM, 3 days; for Mean hCD39 mRNA expression normalized to HPRT1 relative to untreated control = 1: first screening round; for Relative hCD39 mRNA expression (compared to non-treated cells): second screening round, normalized to HPRT1; for Residual hCD39 mRNA expression relative to untreated cells (set as 1): third screening round
Experimental: as §1, §2, §3, §4

[4] = first screening round (Table 8)

Substance: +A*+C*C*C*T*G*A*G*T*T*G*T*A*A*C*+T (antisense ACCCTGAGTTGTAACT; sugars from the 5' end l2 d13 l1, all phosphorothioate, methylation of C not given here) [A04033H]
- mRNA inhibition (hCD39 mRNA [1]; 0.0045 μM, Table 8): 3.05%
- mRNA inhibition (hCD39 mRNA [1]; 0.013 μM, Table 8): −3.30%
- mRNA inhibition (hCD39 mRNA [1]; 0.04 μM, Table 8): 24.10%
- mRNA inhibition (hCD39 mRNA [1]; 0.12 μM, Table 8): 46.98%
- mRNA inhibition (hCD39 mRNA [1]; 0.4 μM, Table 8): 70.74%
- mRNA inhibition (hCD39 mRNA [1]; 1.1 μM, Table 8): 83.81%
- mRNA inhibition (hCD39 mRNA [1]; 3.3 μM, Table 8): 92.79%
- mRNA inhibition (hCD39 mRNA [1]; 10 μM, Table 8): 98.02%
- IC50 (hCD39 mRNA [1]; [4]): 0.119 µM
- Mean hCD39 mRNA expression (relative to untreated cells set as 1) (hCD39 mRNA [2]): 0.28
- Relative hCD39 mRNA expression (compared to non-treated cells) (hCD39 mRNA [2]): 0.14
- Mean hCD39 mRNA expression normalized to HPRT1 relative to untreated control = 1 (hCD39 mRNA [3]): 0.10
- Relative hCD39 mRNA expression (compared to non-treated cells) (hCD39 mRNA [3]): *

Substance: +A*+G*+A*G*T*G*C*C*T*G*A*T*C*+C*+T*+T (antisense AGAGTGCCTGATCCTT; sugars from the 5' end l3 d10 l3, all phosphorothioate, methylation of C not given here) [A04051H]
- mRNA inhibition (hCD39 mRNA [1]; 0.45 nM, Table 12): 30.83%
- mRNA inhibition (hCD39 mRNA [1]; 1.3 nM, Table 12): 15.36%
- mRNA inhibition (hCD39 mRNA [1]; 4 nM, Table 12): 23.62%
- mRNA inhibition (hCD39 mRNA [1]; 12 nM, Table 12): 23.14%
- mRNA inhibition (hCD39 mRNA [1]; 40 nM, Table 12): 43.66%
- mRNA inhibition (hCD39 mRNA [1]; 110 nM, Table 12): 70.34%
- mRNA inhibition (hCD39 mRNA [1]; 330 nM, Table 12): 86.77%
- mRNA inhibition (hCD39 mRNA [1]; 1000 nM, Table 12): 92.82%
- IC50 (hCD39 mRNA [1]; third screening round (Table 12)): 0.069 µM
- Residual hCD39 mRNA expression relative to untreated cells (set as 1) (hCD39 mRNA [2]): 0.34
- Residual hCD39 mRNA expression relative to untreated cells (set as 1) (hCD39 mRNA [3]): 0.02

Substance: +C*+A*+G*T*C*A*A*T*C*C*T*G*C*+T*+C*+A (antisense CAGTCAATCCTGCTCA; sugars from the 5' end l3 d10 l3, all phosphorothioate, methylation of C not given here) [A04039H]
- mRNA inhibition (hCD39 mRNA [1]; 0.0045 μM, Table 8): 11.56%
- mRNA inhibition (hCD39 mRNA [1]; 0.013 μM, Table 8): 14.30%
- mRNA inhibition (hCD39 mRNA [1]; 0.04 μM, Table 8): 20.47%
- mRNA inhibition (hCD39 mRNA [1]; 0.12 μM, Table 8): 44.03%
- mRNA inhibition (hCD39 mRNA [1]; 0.4 μM, Table 8): 71.25%
- mRNA inhibition (hCD39 mRNA [1]; 1.1 μM, Table 8): 85.22%
- mRNA inhibition (hCD39 mRNA [1]; 3.3 μM, Table 8): 92.53%
- mRNA inhibition (hCD39 mRNA [1]; 10 μM, Table 8): 96.54%
- IC50 (hCD39 mRNA [1]; [4]): 0.177 µM
- Mean hCD39 mRNA expression (relative to untreated cells set as 1) (hCD39 mRNA [2]): 0.27
- Relative hCD39 mRNA expression (compared to non-treated cells) (hCD39 mRNA [2]): 0.14
- Mean hCD39 mRNA expression normalized to HPRT1 relative to untreated control = 1 (hCD39 mRNA [3]): 0.06
- Relative hCD39 mRNA expression (compared to non-treated cells) (hCD39 mRNA [3]): *

Substance: +T*+A*G*A*C*A*T*T*G*T*A*G*+T*+C*+C (antisense TAGACATTGTAGTCC; sugars from the 5' end l2 d10 l3, all phosphorothioate, methylation of C not given here) [A04009H]
- Mean hCD39 mRNA expression (relative to untreated cells set as 1) (hCD39 mRNA [2]): 0.28
- Relative hCD39 mRNA expression (compared to non-treated cells) (hCD39 mRNA [2]): 0.29
- Mean hCD39 mRNA expression normalized to HPRT1 relative to untreated control = 1 (hCD39 mRNA [3]): 0.15
- Relative hCD39 mRNA expression (compared to non-treated cells) (hCD39 mRNA [3]): 0.15

Substance: +T*+G*+A*T*A*G*C*C*T*T*G*C*+A*+G*+A (antisense TGATAGCCTTGCAGA; sugars from the 5' end l3 d9 l3, all phosphorothioate, methylation of C not given here) [A04014H]
- Mean hCD39 mRNA expression (relative to untreated cells set as 1) (hCD39 mRNA [2]): 0.27
- Relative hCD39 mRNA expression (compared to non-treated cells) (hCD39 mRNA [2]): 0.27
- Mean hCD39 mRNA expression normalized to HPRT1 relative to untreated control = 1 (hCD39 mRNA [3]): 0.17
- Relative hCD39 mRNA expression (compared to non-treated cells) (hCD39 mRNA [3]): 0.17

Substance: +T*+T*+G*A*A*C*A*C*T*G*C*+G*+A*+T (antisense TTGAACACTGCGAT; sugars from the 5' end l3 d8 l3, all phosphorothioate, methylation of C not given here) [A04003H]
- Mean hCD39 mRNA expression (relative to untreated cells set as 1) (hCD39 mRNA [2]): 0.18
- Relative hCD39 mRNA expression (compared to non-treated cells) (hCD39 mRNA [2]): 0.18
- Mean hCD39 mRNA expression normalized to HPRT1 relative to untreated control = 1 (hCD39 mRNA [3]): 0.20
- Relative hCD39 mRNA expression (compared to non-treated cells) (hCD39 mRNA [3]): 0.20

Substance: +T*+T*+G*C*A*G*A*G*C*A*T*T*+A*+T*+C (antisense TTGCAGAGCATTATC; sugars from the 5' end l3 d9 l3, all phosphorothioate, methylation of C not given here) [A04007H]
- Mean hCD39 mRNA expression (relative to untreated cells set as 1) (hCD39 mRNA [2]): 0.53
- Relative hCD39 mRNA expression (compared to non-treated cells) (hCD39 mRNA [2]): 0.53
- Mean hCD39 mRNA expression normalized to HPRT1 relative to untreated control = 1 (hCD39 mRNA [3]): 0.23
- Relative hCD39 mRNA expression (compared to non-treated cells) (hCD39 mRNA [3]): 0.23

Substance: +T*+T*+T*G*T*G*T*G*A*G*A*G*+C*+T*+T (antisense TTTGTGTGAGAGCTT; sugars from the 5' end l3 d9 l3, all phosphorothioate, methylation of C not given here) [A04058H]
- Residual hCD39 mRNA expression relative to untreated cells (set as 1) (hCD39 mRNA [2]): 0.25
- Residual hCD39 mRNA expression relative to untreated cells (set as 1) (hCD39 mRNA [3]): 0.01

Substance: +T*G*+T*A*G*A*G*G*C*T*C*C*C*+C*+C (antisense TGTAGAGGCTCCCCC; sugars from the 5' end l1 d1 l1 d10 l2, all phosphorothioate, methylation of C not given here) [A04006H]
- Mean hCD39 mRNA expression (relative to untreated cells set as 1) (hCD39 mRNA [2]): 0.19
- Relative hCD39 mRNA expression (compared to non-treated cells) (hCD39 mRNA [2]): 0.20
- Mean hCD39 mRNA expression normalized to HPRT1 relative to untreated control = 1 (hCD39 mRNA [3]): 0.20
- Relative hCD39 mRNA expression (compared to non-treated cells) (hCD39 mRNA [3]): 0.20
